In brackets after ≈: the same amount, converted by molar mass. Read-outs that look alike come from different tables or passages of the source.
Experiments:
[1] = Dynamic vapor sorption (DVS) and classification of hygroscopicity; type: physicochemical; conditions: for reversibility of water sorption: under the test conditions; for solid form of the sample after DVS: PXRD or FT-Raman on solid recovered after the DVS test
Procedure: DVS measurements were performed with an SPS11-100n “Sorptions Prüfsystem” from ProUmid (formerly “Projekt Messtechnik”), August-Nagel-Str. 23, 89079 Ulm (Germany). About 5-20 mg of sample were put into an aluminum sample pan. Humidity change rates of […] were used. The applied measurement program is described as follows:
The sample was placed on an aluminum or platinum holder on top of a microbalance and allowed to equilibrate at 50% RH before starting the pre-defined humidity programs: • (1) 2 h at 50% RH • (2) 50→0% RH (5%/h); 5 h at 0% RH • (3) 0→95% RH (5%/h); 5 h at 95% RH • (4) 95→0% RH (5%/h); 5 h at 0% RH • (5) 0→95% RH (5%/h); 5 h at 95% RH • (6) 95→50% RH (5%/h); 2 h at 50% RH
The hygroscopicity was classified based on the mass gain at 85% RH relative to the initial mass as follows: deliquescent (sufficient water adsorbed to form a liquid), very hygroscopic (mass increase of ≥15%), hygroscopic (mass increase <15% but ≥2%), slightly hygroscopic (mass increase <2% but ≥0.2%), or non-hygroscopic (mass increase <0.2%).

[2] = Storage in a closed vial at ambient conditions, reanalysis by PXRD; type: physicochemical
Procedure: Stoe Stadi P equipped with a Mythen1K Detector; Cu-Kα1 radiation; standard measurement conditions: transmission; 40 kV and 40 mA tube power; curved Ge monochromator; 0.02°2θ step size, 48 s step time, 1.5-50.5°2θ scanning range; detector mode: step scan; 1 °2θ detector step; standard sample preparation: 10 to 20 mg sample was placed between two acetate foils; sample holder: Stoe transmission sample holder; the sample was rotated during the measurement. All sample preparation and measurement was done in an ambient air atmosphere.

[3] = water, at 23° C.
[4] = Approximate solubility determination (small aliquots of solvent added to ~10 mg of solid, ambient conditions); type: physicochemical; conditions: thermodynamic from solid, approximation
Procedure: Approximate solubilities were determined for the R-ketamine free base. […] These values are only approximations.

[5] = Approximate solubility in 20% (w/w) aqueous (2-Hydroxypropyl)-Beta-cyclodextrin solution and in 20% (w/w) cyclodextrin in buffer pH 7, with pH of the solutions; conditions: for Approximate Solubility: ambient conditions, visual estimate
Procedure: These values were determined by adding small aliquots of solvent or solvent mixture to ˜10 mg of solid and shaking/sonicating for a short period of time at ambient conditions. The solubilities were estimated by visual observations. These values are only approximations. Table 20 summarized the obtained solubility values, and the pH of the resulting solutions.

[6] = HPLC precise solubility determination of R-ketamine salts in water at 25° C., with pH of the saturated solution; conditions: for Initial pH / pH after 24 hours: saturated solution in water, pH determined at 24° C.; for solubility / solubility in water: 25° C.; for solubility: equilibrated one day, HPLC of the saturated solution, values marked * may be underestimated; for solubility in water: one day equilibration, HPLC
Procedure: 50 mg of R-ketamine saccharin salt was suspended in 0.5 mL of water, and the suspension was equilibrated (700 rpm) at 25° C. for one day. 10 to 15 mg of R-ketamine fumarate salt and R-ketamine oxalate salt were also equilibrated in 0.5 mL of water at 25° C. for one day.

[7] = Precise solubility tests of R-ketamine fumarate salt Form A in aqueous media at adjusted pH (HPLC); conditions: for solubility: aqueous, equilibrated one day, HPLC
[8] = DVS, above 70% relative humidity
[9] = obtained solution in 20% (w/w) aqueous cyclodextrin, measured at 24° C.
[10] = obtained solution in 20% (w/w) cyclodextrin in buffer pH 7, measured at 24° C.

CN[C@@]1(c2ccccc2Cl)CCCCC1=O.O=C(O)C(O)C(O)C(=O)O [R-ketamine D-tartrate salt Form A]
additional water uptake [1, 8]: about 3%
reversibility of water sorption ([1]; DVS): irreversible
solid form after storage (PXRD) ([2]; 13 months, ambient conditions): corresponding to R-ketamine D-tartrate salt Form A

CN[C@@]1(c2ccccc2Cl)CCCCC1=O.O=C(O)C(O)C(O)C(=O)O [R-ketamine D-tartrate salt Form B]
water content reached [1, 8]: about 8.5%
reversibility of water sorption ([1]; DVS): irreversible
solid form after storage (PXRD) ([2]; 12 months, ambient conditions): corresponding to R-ketamine D-tartrate salt Form B

CN[C@@]1(c2ccccc2Cl)CCCCC1=O.O=C(O)C(O)C(O)C(=O)O [R-ketamine D-tartrate salt Form C]
water content reached [1, 8]: about 8.3%
reversibility of water sorption ([1]; DVS): irreversible
pH of the suspension ([3]; after 24 hours of stirring): 3.42
pH of the suspension ([3]; after one hour): 3.48

CN[C@@]1(c2ccccc2Cl)CCCCC1=O.O=C(O)C(O)C(O)C(=O)O [R-ketamine D-tartrate salt Form D]
additional water absorbed ([1]; DVS, at high relative humidity): About 0.4%

CN[C@@]1(c2ccccc2Cl)CCCCC1=O [R-ketamine free base, (2R)-2-(2-chlorophenyl)-2-(methylamino)cyclohexan-1-one]
solubility ([4]; aqueous with cosolvent or surfactant or cyclodextrin, 20% (2-hydroxypropyl)-beta-cyclodextrin in water): 1.4 to 1.7 mg/mL (≈ 5.89 to 7.15 mM)
solubility ([4]; organic solvent or mixture, 1-propanol): 60 to 79 mg/mL (≈ 252 to 332 mM)
solubility ([4]; organic solvent or mixture, 2-propanol): 37 to 44 mg/mL (≈ 156 to 185 mM)
solubility ([4]; organic solvent or mixture, Acetone): 111 to 222 mg/mL (≈ 467 to 934 mM)
solubility ([4]; organic solvent or mixture, Acetonitrile): 89 to 133 mg/mL (≈ 374 to 559 mM)
solubility ([4]; organic solvent or mixture, Ethanol): 62 to 83 mg/mL (≈ 261 to 349 mM)
solubility ([4]; organic solvent or mixture, Ethyl acetate): 115 to 230 mg/mL (≈ 484 to 967 mM)
solubility ([4]; organic solvent or mixture, Heptane): 5 to 9 mg/mL (≈ 21 to 37.9 mM)
solubility ([4]; organic solvent or mixture, Methanol): 120 to 240 mg/mL (≈ 505 to 1010 mM)
solubility ([4]; organic solvent or mixture, THF): > 288 mg/mL
solubility ([4]; Water): < 1 mg/mL
solubility ([5]; 20% (w/w) (2-hydroxypropyl)-beta-cyclodextrin in buffer pH 7, pH 7, aqueous with cosolvent or surfactant or cyclodextrin, thermodynamic from solid): 2 to 2.5 mg/mL (≈ 8.41 to 10.5 mM)
solubility ([5]; aqueous with cosolvent or surfactant or cyclodextrin, thermodynamic from solid): 1.5 to 1.7 mg/mL (≈ 6.31 to 7.15 mM)
pH [5, 9]: 8.5
pH [5, 10]: 7.1

CN[C@@]1(c2ccccc2Cl)CCCCC1=O.CN[C@@]1(c2ccccc2Cl)CCCCC1=O.O=C(O)/C=C/C(=O)O [R-ketamine fumarate salt Form A]
Initial pH ([6]; after 3 h): 4.1 (after 3 h)
pH after 24 hours [6]: 4.1
solubility ([6]; water): 17.7* mg/mL
solubility in water ([6]; water): higher than the solubility of the R-ketamine saccharin salt
reversibility of water sorption ([1]; DVS): lost all its water when the humidity is scanned back to 0% r.h.
solid form of the sample after DVS [1]: no change in the crystalline form was observed
solubility ([7]; pH 5.23, r.t.): 304 mg/mL
solubility ([7]; pH 6.14, r.t.): 15.1 mg/mL
solubility ([7]; pH 7.21, r.t.): 1.76 mg/mL
pH on dissolution in pure water ([7]; pure water, from approximate solubility tests): about 5.7
dependence of aqueous solubility on pH ([7]; water adjusted to pH 5, 6, 7, one day at 25° C.): solubility rapidly deceases by increasing pH

CN[C@@]1(c2ccccc2Cl)CCCCC1=O.O=C(O)/C=C/C(=O)O [R-ketamine fumarate salt Form B]
solid form after storage (PXRD) ([2]; 11 months, ambient condition): a mixture of the R-ketamine fumarate salt Form A and B (about 1:1)

CNC1(c2ccccc2Cl)CCCCC1=O.Cl (centres unmarked) [R-ketamine hydrochloride salt, reference compound]
solubility ([5]; aqueous 20% (2-hydroxypropyl)-beta-cyclodextrin solution): *The solubility of the HCl R-ketamine salt was over 100 mg/mL in aqueous 20% (2-hydroxypropyl)-beta-cyclodextrin solution.

CN[C@@]1(c2ccccc2Cl)CCCCC1=O.O=C(O)C(=O)O [R-ketamine oxalate salt]
Initial pH ([6]; after 3 h): 5.6 (after 3 h)
pH after 24 hours [6]: 5.7
solubility ([6]; water): 19.2* mg/mL
solubility in water ([6]; water): higher than the solubility of the R-ketamine saccharin salt
pH of the saturated solution ([6]; water, after one day stirring, pH measured at 24° C.): 5.7
hygroscopicity class ([1]; DVS): very hygroscopic (very hygroscopic (mass increase of ≥15%))
solid form of the sample after DVS [1]: dramatically loss of crystallinity was observed

CN[C@@]1(c2ccccc2Cl)CCCCC1=O.O=C1NS(=O)(=O)c2ccccc21 [R-ketamine saccharin salt]
Initial pH ([6]; after 1 h): 4.2 (after 1 h)
pH after 24 hours [6]: 4.0
solubility ([6]; water): 6.64 mg/mL
solubility in water ([6]; water): 6.6 mg/mL
Approximate Solubility ([5]; 20% (w/w) aqueous cyclodextrin): 28~37 mg/mL
Approximate Solubility ([5]; 20% (w/w) cyclodextrin in buffer pH 7 solution): 26~35 mg/mL
pH [5, 9]: 5
pH [5, 10]: 6.3
hygroscopicity class ([1]; DVS): non-hygroscopic (non-hygroscopic (mass increase <0.2%))
solid form of the sample after DVS [1]: no change in the solid form was observed
